{
  "source": "patent US20240108618A1",
  "about": "“KRAS G12C INHIBITOR DOSING REGIMENS” (Eli Lilly and Company, priority 2022, published 2024)",
  "tested_on": "KRAS G12C-mutant advanced solid tumors",
  "experiment": "NCT04956640 Phase 1a monotherapy clinical response (BOR, ORR, DCR, DOR, TTR, % change from baseline, treatment duration)",
  "type": "in vivo, human",
  "details": "for Best overall response (BOR): Complete Response (CR), % / Best overall response (BOR): No Evaluable (NE), % / Best overall response (BOR): Partial Response (PR), % / Best overall response (BOR): Partial Response, pending confirmation and ongoing (uPR), % / Best overall response (BOR): Progressive Disease (PD), % / Best overall response (BOR): Stable Disease (SD), % / Disease control rate (CR + PR + uPR + SD), % / Objective response rate (CR + PR), % / Objective response rate, confirmed and unconfirmed (CR + PR + uPR), %: Phase 1a NSCLC patients; for Duration of response (DOR) 6 to <9 months / Duration of response (DOR) <6 months / Time to response (TTR) 2 to <4 months / Time to response (TTR) 4 to <6 months / Time to response (TTR) 6 to <9 months / Time to response (TTR) <2 months: Phase 1a responders",
  "protocol": "The term “BOR” as used herein refers to best overall response based on investigator assessments using RECIST criteria (version 1.1). The minimum duration for BOR of SD is at least 6 weeks after the date of first dose of study drug.\nThe term “DOR” as used herein refers to duration of response, wherein DOR in months is calculated as the event or censoring date minus the response start date plus 1 day divided by 30.4375.\nThe term “ORR” as used herein refers to objective response rate, wherein objective response rate is the proportion of patients with BOR of CR or PR. Objective response rate, unconfirmed, is the proportion of patients with BOR of CR, PR, or uPR.\nThe term “TTR” as used herein refers to time to response, wherein TTR in months is calculated as response start date minus first dose date plus 1 day divided by 30.4375.\nNCT04956640 includes Phase 1a dose escalation (Part A of NCT04956640, see Table 3) followed by a Phase 1b dose expansion (Parts B to E of NCT04956640, see Table 4). […] Phase 1b dose expansion will include 12 cohorts (See Table 4) to further evaluate safety and clinical activity.",
  "key": {"[1]": {"details": "Without Prior KRAS G12Ci (N = 8)"}, "[2]": {"details": "starting dose 50 mg BID (N = 14)"}, "[3]": {"details": "starting dose 100 mg BID (N = 24)"}, "[4]": {"details": "starting dose 150 mg BID (N = 25)"}, "[5]": {"details": "starting dose 200 mg BID (N = 12)"}},
  "data": [
    {"smiles": "C=CC(=O)N1CCN2C(=O)c3cc(F)c(-c4ccc(F)c5sc(N)c(C#N)c45)c(Cl)c3OCC[C@H]2C1", "note": "(single isomer, unassigned) [Formula I]", "values": [
      {"measurement": "Best observed response PD (unconfirmed and confirmed), patients", "setting": "CRC", "result": 1},
      {"measurement": "Best observed response PR (unconfirmed and confirmed), patients", "setting": "CRC", "result": 1},
      {"measurement": "Best observed response SD, patients", "setting": "CRC", "result": 13},
      {"measurement": "Best observed response PD (unconfirmed and confirmed), patients", "setting": "NSCLC naïve to KRAS G12Ci", "result": 1},
      {"measurement": "Best observed response SD, patients", "setting": "NSCLC naïve to KRAS G12Ci", "result": 1},
      {"measurement": "Best observed response PD (unconfirmed and confirmed), patients", "setting": "NSCLC with prior KRAS G12Ci", "result": 3},
      {"measurement": "Best observed response PR (unconfirmed and confirmed), patients", "setting": "NSCLC with prior KRAS G12Ci", "result": 1},
      {"measurement": "Best observed response SD, patients", "setting": "NSCLC with prior KRAS G12Ci", "result": 3},
      {"measurement": "Best observed response PD (unconfirmed and confirmed), patients", "setting": "PANC", "result": 2},
      {"measurement": "Best observed response PR (unconfirmed and confirmed), patients", "setting": "PANC", "result": 2},
      {"measurement": "Best observed response SD, patients", "setting": "PANC", "result": 2},
      {"measurement": "Best overall response (BOR): Complete Response (CR), %", "setting": "Total (N = 22)", "result": "(0.0) %"},
      {"measurement": "Best overall response (BOR): No Evaluable (NE), %", "setting": "Total (N = 22)", "result": "(4.5) %"},
      {"measurement": "Best overall response (BOR): Partial Response (PR), %", "setting": "Total (N = 22)", "result": "(18.2) %"},
      {"measurement": "Best overall response (BOR): Partial Response, pending confirmation and ongoing (uPR), %", "setting": "Total (N = 22)", "result": "(0.0) %"},
      {"measurement": "Best overall response (BOR): Progressive Disease (PD), %", "setting": "Total (N = 22)", "result": "(22.7) %"},
      {"measurement": "Best overall response (BOR): Stable Disease (SD), %", "setting": "Total (N = 22)", "result": "(54.5) %"},
      {"measurement": "Disease control rate (CR + PR + uPR + SD), %", "setting": "Total (N = 22)", "result": "(72.7) %"},
      {"measurement": "Objective response rate (CR + PR), %", "setting": "Total (N = 22)", "result": "(18.2) %"},
      {"measurement": "Objective response rate, confirmed and unconfirmed (CR + PR + uPR), %", "setting": "Total (N = 22)", "result": "(18.2) %"},
      {"measurement": "Best overall response (BOR): Complete Response (CR), %", "setting": "With Prior KRAS G12Ci (N = 14)", "result": "(0.0) %"},
      {"measurement": "Best overall response (BOR): No Evaluable (NE), %", "setting": "With Prior KRAS G12Ci (N = 14)", "result": "(7.1) %"},
      {"measurement": "Best overall response (BOR): Partial Response (PR), %", "setting": "With Prior KRAS G12Ci (N = 14)", "result": "(7.1) %"},
      {"measurement": "Best overall response (BOR): Partial Response, pending confirmation and ongoing (uPR), %", "setting": "With Prior KRAS G12Ci (N = 14)", "result": "(0.0) %"},
      {"measurement": "Best overall response (BOR): Progressive Disease (PD), %", "setting": "With Prior KRAS G12Ci (N = 14)", "result": "(28.6) %"},
      {"measurement": "Best overall response (BOR): Stable Disease (SD), %", "setting": "With Prior KRAS G12Ci (N = 14)", "result": "(57.1) %"},
      {"measurement": "Disease control rate (CR + PR + uPR + SD), %", "setting": "With Prior KRAS G12Ci (N = 14)", "result": "(64.3) %"},
      {"measurement": "Objective response rate (CR + PR), %", "setting": "With Prior KRAS G12Ci (N = 14)", "result": "(7.1) %"},
      {"measurement": "Objective response rate, confirmed and unconfirmed (CR + PR + uPR), %", "setting": "With Prior KRAS G12Ci (N = 14)", "result": "(7.1) %"},
      {"measurement": "Best overall response (BOR): Complete Response (CR), %", "setting": "[1]", "result": "(0.0) %"},
      {"measurement": "Best overall response (BOR): No Evaluable (NE), %", "setting": "[1]", "result": "(0.0) %"},
      {"measurement": "Best overall response (BOR): Partial Response (PR), %", "setting": "[1]", "result": "(37.5) %"},
      {"measurement": "Best overall response (BOR): Partial Response, pending confirmation and ongoing (uPR), %", "setting": "[1]", "result": "(0.0) %"},
      {"measurement": "Best overall response (BOR): Progressive Disease (PD), %", "setting": "[1]", "result": "(12.5) %"},
      {"measurement": "Best overall response (BOR): Stable Disease (SD), %", "setting": "[1]", "result": "(50.0) %"},
      {"measurement": "Disease control rate (CR + PR + uPR + SD), %", "setting": "[1]", "result": "(87.5) %"},
      {"measurement": "Objective response rate (CR + PR), %", "setting": "[1]", "result": "(37.5) %"},
      {"measurement": "Objective response rate, confirmed and unconfirmed (CR + PR + uPR), %", "setting": "[1]", "result": "(37.5) %"},
      {"measurement": "Duration of response (DOR) 6 to <9 months", "setting": "Total (N = 75)", "result": "3 (15.8) n (%)"},
      {"measurement": "Duration of response (DOR) <6 months", "setting": "Total (N = 75)", "result": "16 (84.2) n (%)"},
      {"measurement": "Time to response (TTR) 2 to <4 months", "setting": "Total (N = 75)", "result": "2 (10.5) n (%)"},
      {"measurement": "Time to response (TTR) 4 to <6 months", "setting": "Total (N = 75)", "result": "2 (10.5) n (%)"},
      {"measurement": "Time to response (TTR) 6 to <9 months", "setting": "Total (N = 75)", "result": "1 (5.3) n (%)"},
      {"measurement": "Time to response (TTR) <2 months", "setting": "Total (N = 75)", "result": "14 (73.7) n (%)"},
      {"measurement": "Duration of response (DOR) 6 to <9 months", "setting": "[2]", "result": "0 (0.0) n (%)"},
      {"measurement": "Duration of response (DOR) <6 months", "setting": "[2]", "result": "2 (100.0) n (%)"},
      {"measurement": "Time to response (TTR) 2 to <4 months", "setting": "[2]", "result": "0 (0.0) n (%)"},
      {"measurement": "Time to response (TTR) 4 to <6 months", "setting": "[2]", "result": "0 (0.0) n (%)"},
      {"measurement": "Time to response (TTR) 6 to <9 months", "setting": "[2]", "result": "0 (0.0) n (%)"},
      {"measurement": "Time to response (TTR) <2 months", "setting": "[2]", "result": "2 (100.0) n (%)"},
      {"measurement": "Duration of response (DOR) 6 to <9 months", "setting": "[3]", "result": "0 (0.0) n (%)"},
      {"measurement": "Duration of response (DOR) <6 months", "setting": "[3]", "result": "7 (100.0) n (%)"},
      {"measurement": "Time to response (TTR) 2 to <4 months", "setting": "[3]", "result": "1 (14.3) n (%)"},
      {"measurement": "Time to response (TTR) 4 to <6 months", "setting": "[3]", "result": "0 (0.0) n (%)"},
      {"measurement": "Time to response (TTR) 6 to <9 months", "setting": "[3]", "result": "1 (14.3) n (%)"},
      {"measurement": "Time to response (TTR) <2 months", "setting": "[3]", "result": "5 (71.4) n (%)"},
      {"measurement": "Duration of response (DOR) 6 to <9 months", "setting": "[4]", "result": "2 (33.3) n (%)"},
      {"measurement": "Duration of response (DOR) <6 months", "setting": "[4]", "result": "4 (66.7) n (%)"},
      {"measurement": "Time to response (TTR) 2 to <4 months", "setting": "[4]", "result": "0 (0.0) n (%)"},
      {"measurement": "Time to response (TTR) 4 to <6 months", "setting": "[4]", "result": "2 (33.3) n (%)"},
      {"measurement": "Time to response (TTR) 6 to <9 months", "setting": "[4]", "result": "0 (0.0) n (%)"},
      {"measurement": "Time to response (TTR) <2 months", "setting": "[4]", "result": "4 (66.7) n (%)"},
      {"measurement": "Duration of response (DOR) 6 to <9 months", "setting": "[5]", "result": "1 (25.0) n (%)"},
      {"measurement": "Duration of response (DOR) <6 months", "setting": "[5]", "result": "3 (75.0) n (%)"},
      {"measurement": "Time to response (TTR) 2 to <4 months", "setting": "[5]", "result": "1 (25.0) n (%)"},
      {"measurement": "Time to response (TTR) 4 to <6 months", "setting": "[5]", "result": "0 (0.0) n (%)"},
      {"measurement": "Time to response (TTR) 6 to <9 months", "setting": "[5]", "result": "0 (0.0) n (%)"},
      {"measurement": "Time to response (TTR) <2 months", "setting": "[5]", "result": "3 (75.0) n (%)"},
      {"measurement": "Patients with best overall response of CR or PR", "setting": "Phase 1a, Total (N = 75)", "result": "19 (25.3) N′ (%)"}
    ]}
  ]
}
